Common to all, as to type: cell-based
Assay [1] has as its system HFF-1 (human fibroblast cells). As to the kind of experiment: Cell culture cytotoxicity screening (Alamar Blue), HFF-1. The note with it: HFF-1, Alamar Blue, 72 hours. The procedure:
Cell culture cytotoxicity screening. The compounds were evaluated for their ability to kill cancer cell lines in culture, using HOS (osteosarcoma); ES-2 (ovarian cancer); HCT 116 (colon cancer); A549 (lung carcinoma); and A172 (glioma) cells. Human skin fibroblast cells (HFF-1) were also assessed. Cells were seeded (3000 cells well^−1 for ES-2, HCT 116, A549 and A172; 4000 cells well^−1 for HFF-1 and 2500 cells well^−1 for HOS) in a 96-well plate and allowed to attach overnight. Cells were treated with pantaphos in water. The concentrations of the tested compounds were 5 nM to 100 μM (1% water final; 100 μl well^−1). Raptinal (50 μM) was used as a dead control. On each plate, five technical replicates per compound were performed. 72 hours post-treatment, cell viability was assessed using the Alamar Blue method (http://www.bio-rad-antibodies.com/measuring-cytotoxicity-proliferation-spectrophotometry-fluorescence-alamarBlue.html). Alamar Blue solution (10 μl of 440 μM resazurin in sterile 1×PBS) was added to each well, and the plate was incubated for 3-4 hrs. Conversion of Alamar Blue was measured with a plate reader (SpectraMax M3; Molecular Devices) by fluorescence (excitation wavelength: 555 nm; emission wavelength: 585 nm; cutoff 570 nm; autogain). Percentage death was determined by normalizing to water-treated cells and Raptinal-treated cells. […]
In general terms: The colour change of resazurin is a common sign of viable cells or microbes.

Assay [2] concerns Staphylococcus aureus ATCC 29213. As to the kind of experiment: Antibacterial bioassay (MIC), Staphylococcus aureus. The conditions noted are these: CLSI. The procedure:
Antibacterial bioassays. Susceptibility testing for the ESKAPE pathogens and Salmonella enterica LT2 was performed using a Kirby-Bauer method as outlined by the Clinical and Laboratory Standards Institute (CLSI). For rich media bioassays, Mueller Hinton Broth 2 (MH-2, Sigma-Aldrich, 90922) was used for all strains except 1% BHI was supplemented for Enterococcus faecalis ATCC 19433. For minimal media bioassays, glucose-MOPS minimal medium was used. Briefly, overnight bacterial cultures were sub-cultured and inoculated into 5 mL top agar (0.7% agar) for final concentration of 5×10^5 CFU/mL. Then, 20 μL of a compound 2-fold dilution series (200, 100, 50, 25, 12.5, 6.25 μM in water) was spotted on 6 mm diameter blank paper discs (BD BBL™ 231039). Control discs received 20 μL of 50 mg/mL kanamycin. Plates were incubated at 35° C. for 20-24 hours. […] Sensitivity of the IPTG-inducible phosphonate uptake strain WM6242 to pantaphos was tested using a disk diffusion assay. Plates containing growth medium were overlayed with 5 mL of top agar (0.7% agar) inoculated with 100 μL (OD600=0.8) of the phosphonate-specific E. coli indicator strain (WM6242) with or without addition of 1 mM IPTG. WM6242 is engineered with an IPTG-inducible, non-specific phosphonate uptake system (phnCDE). […]

In the next assay the test system is Candida albicans SN250. The experiment in a line: Fungicidal bioassay (MIC), Candida albicans. The procedure: Bacteria, plasmids and growth conditions. Bacterial strains, plasmids and primers used in this study are described in Table 3 and 4. General chemical and molecular biology reagents were purchased from Sigma-Aldrich or New England Biolabs. Phosphinothricin (glufosinate) was purchased from GoldBio (CAS #77182-82-2). Standard bacterial growth media were prepared as described (Current Protocols in Molecular Biology 2019, 125:e81, e82, e83). E. coli strains were typically grown at 37° C.; P. ananatis strains were typically grown at 30° C. Phosphonate induction media (PIM) was prepared as follows: 8.37 g/L MOPS, 0.72 g/L Tricine, 0.58 g/L NaCl, 0.51 g/L NH4Cl, 1.6 g/L KOH, 0.1 g/L MgCl2·6H2O, 0.05 g/L K2SO4, 0.2 g/L K2HIPO4 were dissolved H2O and steam sterilized for 20 min at 121° C. […]
Fungicidal bioassays. […] Minimum Inhibitory Concentration (MIC) was determined visually by finding the concentration of compound at which there was no visual difference between that concentration and the uninoculated media control.

The IC50 is the concentration that gives 50% inhibition. The low end stands for greater potency in that assay, the high end for weaker potency in that assay. Broadly, the Emax is the maximal effect, on the per cent scale that the assay sets. By MIC is commonly meant the lowest concentration that inhibits growth of the organism.

Like-named read-outs stand apart in the source and are kept apart here. Where only a bound is given, the exact number is not on record here.

In the case of `O=C(O)/C=C(\C(=O)O)C(O)P(=O)(O)O` (stereo not drawn) [pantaphos, 2-(hydroxy(phosphono)methyl)maleate], half-maximal inhibition in assay [1] (IC50) required 6.69 ± 0.29 µM. The Emax in assay [1] (read-out: Emax = percentage cell death (converted)) was 85%. Moreover, the MIC in assay [2] (ATCC29213, Mueller-Hinton 2 medium, read-out: MIC, Rich medium) is above 200 µM; in assay [2] (ATCC29213, glucose-MOPS minimal medium, read-out: MIC, Minimal medium) it was above 200 µM; with Candida albicans SN250 (Candida albicans, SN250, RPMI 1640 medium, 48 hrs growth, CLSI, read-out: MIC, Rich medium) it was above 125 µM. In addition, the “effect on the growth of fungi, in words” value in the assay on Candida albicans SN250 (rich or minimal media) is recorded as “no effect on the growth”.
